# Assay results from US20120238549A1, “Nuclear Hormone Receptor Modulators” (ABBOTT LABORATORIES, priority 2011, published 2012).
# Molecular target: T1, Glucocorticoid Receptor (GR) (Homo sapiens, UniProt P04150)
# T1 construct: purchased Invitrogen P2893
# T1 sequence (P04150 1-777): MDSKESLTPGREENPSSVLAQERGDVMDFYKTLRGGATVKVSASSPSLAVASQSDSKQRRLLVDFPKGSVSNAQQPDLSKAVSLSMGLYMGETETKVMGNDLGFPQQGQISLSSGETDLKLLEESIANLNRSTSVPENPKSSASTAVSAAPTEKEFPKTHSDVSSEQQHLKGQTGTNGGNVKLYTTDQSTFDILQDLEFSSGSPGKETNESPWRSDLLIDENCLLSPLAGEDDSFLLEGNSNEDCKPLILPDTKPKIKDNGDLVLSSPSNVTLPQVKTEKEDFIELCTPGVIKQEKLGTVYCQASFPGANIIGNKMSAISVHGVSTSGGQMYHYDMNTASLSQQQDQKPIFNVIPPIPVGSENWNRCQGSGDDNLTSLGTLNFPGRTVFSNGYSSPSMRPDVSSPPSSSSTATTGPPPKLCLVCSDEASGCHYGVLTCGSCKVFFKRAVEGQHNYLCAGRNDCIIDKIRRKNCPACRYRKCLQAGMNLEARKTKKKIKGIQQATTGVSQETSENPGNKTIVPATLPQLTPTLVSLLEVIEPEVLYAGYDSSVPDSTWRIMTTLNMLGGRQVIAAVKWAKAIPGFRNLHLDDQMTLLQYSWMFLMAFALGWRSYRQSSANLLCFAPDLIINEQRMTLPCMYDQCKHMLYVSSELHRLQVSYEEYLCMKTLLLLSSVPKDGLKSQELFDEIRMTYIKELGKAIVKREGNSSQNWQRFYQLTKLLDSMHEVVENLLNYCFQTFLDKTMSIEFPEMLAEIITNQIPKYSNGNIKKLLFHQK
# Assay: GR Florescence Polarization Assay (PolarScreen Glucocorticoid Receptor Competitor Assay, Red)
# Settings: Fluorescense polarization binding ranges; competition with fluorescent glucocorticoid, incubated overnight at 4° C.
# Method: GR Florescence Polarization Assay Florescence polarization assays were carried out using the PolarScreen™ Glucocorticoid Receptor Competitor Assay, Red from Invitrogen (P2893). The assay buffer was prepared according to the manufacturer's protocol and used to dilute the fluorescent glucocorticoid and GR. Compounds were prepared and serial diluted 1:4 in DMSO. Compound, fluorescent glucocorticoid and GR were added in a final volume of 20 μL and incubated overnight at 4° C. Fluorescent polarization was measured on the Perkinelmer Envision®.
row,Compound,IC50
1,"(3R,4aR,11bR)-11b-benzyl-3-methyl-2,3,4,4a,5,6,7,11b-octahydro-1H-dibenzo[a,c]cycloheptene-3,9-diol; compound with (3S,4aS,11bS)-11b-benzyl-3-methyl-2,3,4,4a,5,6,7,11b-octahydro-1H-dibenzo[a,c]cycloheptene-3,9-diol [Example 7]",< 100 nM
2,"CC[C@@]1(O)CC[C@@]2(Cc3ccccc3)c3ccc(C(=O)Nc4cccnc4C)cc3C(=O)OC[C@H]2C1 [Example 112, (7aS,9R,11aS)-11a-Benzyl-9-ethyl-9-hydroxy-N-(2-methylpyridin-3-yl)-5-oxo-5,7,7a,8,9,10,11,11a-octahydrodibenzo[c,e]oxepine-3-carboxamide]",100 to 1000 nM
3,CC[C@@]1(O)CC[C@@]2(Cc3ccccc3)c3ccc(C(=O)Nc4ccnn4C)cc3CCC[C@H]2C1 [Example 75],< 100 nM
4,"O=C1CC[C@@]2(Cc3ccccc3)C(=O)CCCC[C@H]2C1.O=C1CC[C@]2(Cc3ccccc3)C(=O)CCCC[C@@H]2C1 [Example 36, (4aS,9aS)-4a-Benzyl-octahydro-benzocycloheptene-2,5-dione; compound with (4aR,9aR)-4a-benzyl-octahydro-benzocycloheptene-2,5-dione]",> 10000 nM
5,"CC[C@@]1(O)CC[C@]2(Cc3ccccc3)c3nn(C)cc3CCC[C@@H]2C1.CC[C@]1(O)CC[C@@]2(Cc3ccccc3)c3nn(C)cc3CCC[C@H]2C1 [Example 41, (6aS,8S,10aS)-10a-benzyl-8-ethyl-2-methyl-2,4,5,6,6a,7,8,9,10,10a-decahydro-1,2-diaza-benzo[e]azulen-8-ol; compound with (6aR,8R,10aR)-10a-benzyl-8-ethyl-2-methyl-2,4,5,6,6a,7,8,9,10,10a-decahydro-1,2-diaza-benzo[e]azulen-8-ol]",> 10000 nM
6,Cc1ncccc1NC(=O)c1ccc2c(c1)CCC[C@H]1C[C@@](O)(COC3COC3)CC[C@@]21Cc1ccccc1 (racemic) [Example 96],< 100 nM
7,"CCC[C@]1(O)CC[C@]2(CC)c3ccc(-c4nc5ccccc5[nH]4)cc3CCC[C@@H]2C1 (single isomer, unassigned) [Example 148]",1000 to 10000 nM
8,CC[C@@]12CC[C@](O)(CC(C)C)C[C@@H]1CCCc1cc(C(=O)Nc3cccnc3C)ccc12 [Example 49],< 100 nM
9,"CC[C@@]1(O)CC[C@@]2(Cc3ccccc3)c3cc(C(=O)Nc4cccnc4C)cn3CCC[C@H]2C1 (racemic) [Example 144, (7aS,9R,11aS)-11a-Benzyl-9-ethyl-9-hydroxy-N-(2-methylpyridin-3-yl)-6,7,7a,8,9,10,11,11a-octahydro-5H-benzo[c]pyrrolo[1,2-a]azepine-2-carboxamide; compound with (7aR,9S,11aR)-11a-benzyl-9-ethyl-9-hydroxy-N-(2-methylpyridin-3-yl)-6,7,7a,8,9,10,11,11a-octahydro-5H-benzo[c]pyrrolo[1,2-a]azepine-2-carboxamide]",1000 to 10000 nM
10,"CC[C@@]12C[C@@H](O)[C@](O)(c3ccccc3)C[C@@H]1CCCc1cc(C(=O)Nc3cccnc3C)ccc12 (single isomer, unassigned) [Example 124]",1000 to 10000 nM
11,"CCC[C@@]1(O)CC[C@@]2(CC)c3ccc(C(=O)Nc4cccnc4C)cc3C(=O)CC[C@H]2C1 (single isomer, unassigned) [Example 61]",100 to 1000 nM

# The remaining lines, values ahead:
row,IC50,Compound
1,< 100 nM,"Cc1ncccc1NC(=O)c1ccc2c(c1)CCC[C@H]1CC(=O)CC[C@@]21Cc1ccccc1 (racemic) [Example 11, (7aS,11aS)-11a-Benzyl-9-oxo-6,7,7a,8,9,10,11,11a-octahydro-5H-dibenzo[a,c]cycloheptene-3-carboxylic acid (2-methyl-pyridin-3-yl)-amide; compound with (7aR,11aR)-11a-benzyl-9-oxo-6,7,7a,8,9,10,11,11a-octahydro-5H-dibenzo[a,c]cycloheptene-3-carboxylic acid (2-methyl-pyridin-3-yl)-amide]"
2,< 100 nM,Cc1ncccc1NC(=O)c1ccc2c(c1)CCC[C@H]1C[C@@](O)(COCC(F)(F)F)CC[C@@]21Cc1ccccc1 (racemic) [Example 95]
3,100 to 1000 nM,"O=C1C=C2CCCc3cc(O)ccc3C2(Cc2ccccc2)CC1 (centres unmarked) [Example 2, 11b-Benzyl-9-hydroxy-1,2,5,6,7,11b-hexahydro-dibenzo[a,c]cyclohepten-3-one]"
4,< 100 nM,"CCC[C@@]1(O)CC[C@@]2(Cc3ccccc3)c3ccc(C(=O)Nc4cccnc4C)cc3CCC[C@H]2C1 (racemic) [Example 31, (7aS,9R,11aS)-11a-Benzyl-9-hydroxy-9-propyl-6,7,7a,8,9,10,11,11a-octahydro-5H-dibenzo[a,c]cycloheptene-3-carboxylic acid (2-methyl-pyridin-3-yl)-amide; compound with (7aR,9S,11aR)-11a-benzyl-9-hydroxy-9-propyl-6,7,7a,8,9,10,11,11a-octahydro-5H-dibenzo[a,c]cycloheptene-3-carboxylic acid (2-methyl-pyridin-3-yl)-amide]"
5,< 100 nM,"CCC[C@@]1(O)CC[C@@]2(CC3CC3)c3ccc(C(=O)Nc4cccnc4C)cc3CCC[C@H]2C1 (racemic) [Example 150, (7aR,9R,11aS)-11a-Cyclopropylmethyl-9-hydroxy-9-propyl-6,7,7a,8,9,10,11,11a-octahydro-5H-dibenzo[a,c]cycloheptene-3-carboxylic acid (2-methyl-pyridin-3-yl)-amide; compound with (7aS,9S,11aR)-11a-cyclopropylmethyl-9-hydroxy-9-propyl-6,7,7a,8,9,10,11,11a-octahydro-5H-dibenzo[a,c]cycloheptene-3-carboxylic acid (2-methyl-pyridin-3-yl)-amide]"
6,> 10000 nM,CC[C@@]1(O)CC[C@@]2(Cc3ccccc3)c3ccc(C(=O)NCCN4CCOCC4)cc3CCC[C@H]2C1 [Example 84]
7,< 100 nM,"Cc1ncccc1NC(=O)c1ccc2c(c1)CCC[C@@H]1C[C@@](O)(C(F)(F)F)CC[C@@]21Cc1ccccc1 (racemic) [Example 3, (7aR,9R,11aS)-11a-Benzyl-9-hydroxy-9-trifluoromethyl-6,7,7a,8,9,10,11,11a-octahydro-5H-dibenzo[a,c]cycloheptene-3-carboxylic acid (2-methyl-pyridin-3-yl)-amide; compound with (7aS,9S,11aR)-11a-benzyl-9-hydroxy-9-trifluoromethyl-6,7,7a,8,9,10,11,11a-octahydro-5H-dibenzo[a,c]cycloheptene-3-carboxylic acid (2-methyl-pyridin-3-yl)-amide]"
8,< 100 nM,"Cc1ncccc1NC(=O)c1ccc2c(c1)CCC[C@H]1C[C@@](O)(CC(C)C)CC[C@@]21CC(F)(F)F (racemic) [Example 63, (7aS,9S,11aS)-9-Hydroxy-9-isobutyl-11a-(2,2,2-trifluoro-ethyl)-6,7,7a,8,9,10,11,11a-octahydro-5H-dibenzo[a,c]cycloheptene-3-carboxylic acid (2-methyl-pyridin-3-yl)-amide; compound with (7aR,9R,11aR)-9-hydroxy-9-isobutyl-11a-(2,2,2-trifluoro-ethyl)-6,7,7a,8,9,10,11,11a-octahydro-5H-dibenzo[a,c]cycloheptene-3-carboxylic acid (2-methyl-pyridin-3-yl)-amide]"
9,< 100 nM,"CCC[C@@]1(O)CC[C@@]2(CC)c3ccc(C(=O)Nc4cccnc4C)cc3COC[C@H]2C1 (single isomer, unassigned) [Example 138]"
